Literature values, collected in patent US20220380769A1 (priority 2020, published 2022).

Test system: avian H5N1 influenza virus clades
Conditions: in vivo; cited from earlier work

Substance: rIn.r(C12U)n [Rintatolimod]
- protection from lethal challenge doses of three avian H5N1 influenza virus clades: able to protect
